Measured values taken from patent publication US7842808B2, “Anti-migraine spirocycles” (Bristol-Myers Squibb Company, priority 2002, dated 2010).

Experiments:
[1] = biological target: T1, CGRP receptor (SK-N-MC cell membranes) (Homo sapiens, UniProt O60894+Q16602); assay: CGRP Binding Assay ([125I]-CGRP radioligand binding, SK-N-MC homogenate); conditions: displacement of [125I]-CGRP, SK-N-MC homogenate; read-out: CGRP binding IC50
T1 construct: endogenous in cells; host or cells: SK-N-MC cells (membrane homogenate)
T1 sequence (Q16602 23-461): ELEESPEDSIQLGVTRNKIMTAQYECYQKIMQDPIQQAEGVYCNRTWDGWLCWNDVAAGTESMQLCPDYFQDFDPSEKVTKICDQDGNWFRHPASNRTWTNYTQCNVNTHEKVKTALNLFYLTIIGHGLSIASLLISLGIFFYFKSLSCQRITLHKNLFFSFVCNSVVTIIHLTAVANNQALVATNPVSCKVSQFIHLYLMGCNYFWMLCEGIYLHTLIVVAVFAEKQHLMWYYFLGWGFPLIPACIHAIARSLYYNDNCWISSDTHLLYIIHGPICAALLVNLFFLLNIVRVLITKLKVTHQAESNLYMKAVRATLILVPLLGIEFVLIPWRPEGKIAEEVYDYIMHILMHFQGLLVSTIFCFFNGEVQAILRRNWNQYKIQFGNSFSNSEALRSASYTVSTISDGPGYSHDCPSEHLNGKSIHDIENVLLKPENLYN
T1 sequence (O60894 27-148): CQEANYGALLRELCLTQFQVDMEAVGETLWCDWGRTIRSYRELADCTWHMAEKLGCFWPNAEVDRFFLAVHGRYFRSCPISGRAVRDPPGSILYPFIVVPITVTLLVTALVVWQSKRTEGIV

[2] = biological target: T2, human CGRP receptor (SK-N-MC cells) (Homo sapiens, UniProt O60894+Q16602); assay: Cyclic AMP Assay, functional antagonism of CGRP-induced cyclic AMP formation; type: cell-based; conditions: SK-N-MC cells, 0.3 nM CGRP; read-out: cAMP Function IC50
T2 construct: SK-N-MC cells that endogenously express the human CGRP receptor; endogenous in cells; host or cells: SK-N-MC cells
T2 sequence (Q16602 23-461): as the sequence (Q16602 23-461) above
T2 sequence (O60894 27-148): as the sequence (O60894 27-148) above
Experimental: Functional Antagonism. Antagonism of the compounds of invention was determined by measuring the formation of cyclic AMP (adenosine 3′5′-cyclic monophosphate) in SK-N-MC cells that endogenously express the human CGRP receptor. […] For cyclic AMP measurements SK-N-MC cells were incubated with 0.3 nM CGRP alone or in the presence of various concentrations of the compounds of invention for 30 min at room temperature. […] Cyclic AMP was extracted using the lysis reagent and its concentration was determined by radioimmunoassay using RPA559 cAMP SPA Direct Screening Assay Kit (Amersham Pharmacia Biotech). IC50 values were calculated using Excel fit.

| SMILES | IC50 [1] | IC50 [2] |
| --- | --- | --- |
| COC(=O)C(Cc1cc(C)c2[nH]ncc2c1)NC(=O)N1CCC(N2Cc3ccccc3NC2=O)CC1 (racemic) [Example 12, (±)-3-(7-Methyl-1H-indazol-5-yl)-2-{[4-(2-oxo-1,4-dihydro-2H-quinazolin-3-yl)-piperidine-1-carbonyl]-amino}-propionic acid methyl ester] | 10 to 100 nM | 100 to 1000 nM |
| Cc1cc(CC(NC(=O)N2CCC3(CC2)NC(=O)Nc2ccccc23)C(=O)N2CCCCC2)cc2cn[nH]c12 (racemic) [Example 24, (±)-1-(7-Methyl-1H-indazol-5-ylmethyl)-2-(1-piperidinyl)-2-oxoethyl]-2′,3′-dihydro-2′-oxospiro-[piperidine-4,4′-(1H)-quinazoline]-1-carboxamide] | 10 to 100 nM | 10 to 100 nM |
| Cc1cc(CC(NC(=O)N2CCC(N3Cc4ccccc4NC3=O)CC2)C(=O)N2CCN(c3ccccn3)CC2)cc2cn[nH]c12 (racemic) [Example 22, (±)-4-(2-Oxo-1,4-dihydro-2H-quinazolin-3-yl)-piperidine-1-carboxylic acid[1-(7-methyl-1H-indazol-5-ylmethyl)-2-oxo-2-(4-pyridin-2-yl-piperazin-1-yl)-ethyl]-amide] | < 10 nM | < 10 nM |
| Cc1cc(CC(NC(=O)N2CCC(N3Cc4ccccc4NC3=O)CC2)C(=O)O)cc2cn[nH]c12 (racemic) [Example 15, (±)-3-(7-Methyl-1H-indazol-5-yl)-2-{[4-(2-oxo-1,4-dihydro-2H-quinazolin-3-yl)-piperidine-1-carbonyl]-amino}-propionic acid] | 100 to 1000 nM | 100 to 1000 nM |

Next, values leading:

| IC50 [1] | IC50 [2] | SMILES |
| --- | --- | --- |
| 10 to 100 nM | 100 to 1000 nM | O=C1Nc2ccccc2C2(CCN(C(=O)CC(Cc3ccc4[nH]ncc4c3)C(=O)N3CCC(N4CCCCC4)CC3)CC2)O1 (racemic) [Example 79, (±)-1-[1,4′]Bipiperidinyl-1′-yl-2-(1H-indazol-5-ylmethyl)-4-[1′,2′-dihydro-2′-oxospiro-[4H-3′,1-benzoxazine-4,4′-piperidinyl]-butane-1,4-dione] |
| 10 to 100 nM | 10 to 100 nM | Cc1cc(CC(CC(=O)N2CCC3(CC2)OC(=O)Nc2ccccc23)C(=O)N2CCCCC2)cc2cn[nH]c12 (racemic) [Example 77, (±)-2-(7-Methyl-1H-indazol-5-ylmethyl)-1-(piperidin-1-yl)-4-[1′,2′-dihydro-2′-oxospiro-[4H-3′,1-benzoxazine-4,4′-piperidinyl]-butane-1,4-dione] |
| < 10 nM | < 10 nM | Cc1cc(CC(NC(=O)N2CCC3(CC2)CC(=O)Nc2ccccc23)C(=O)N2CCC(N3CCCCC3)CC2)cc2cn[nH]c12 (racemic) [Example 31, (±)-1-(7-Methyl-1H-indazol-5-ylmethyl)-2-[1,4-bipiperidin]-1-yl-2-oxoethyl]3′,4′-dihydro-2′-oxospiro-[piperidine-4,4′-(1H)-quinoline]-1-carboxamide] |
| 10 to 100 nM | 10 to 100 nM | O=C(C[C@H](Nc1cc(Cl)ccc1[N+](=O)[O-])C(=O)N1CCC(N2CCCCC2)CC1)N1CCC(N2Cc3ccccc3NC2=O)CC1 [Example 87, (L)-1-[1,4′]Bipiperidinyl-1′-yl-2-(5-chloro-2-nitro-phenylamino)-4-[4-(2-oxo-1,4-dihydro-2H-quinazolin-3-yl)-piperidin-1-yl]-butane-1,4-dione] |
| 10 to 100 nM | 10 to 100 nM | Cc1cc(CC(NC(=O)N2CCC3(CC2)N=C(c2ccccc2)NC3=O)C(=O)N(C)C)cc2cn[nH]c12 (racemic) [Example 36, (±)-4-Oxo-2-phenyl-1,3,8-triaza-spiro[4,5]dec-1-ene-8-carboxylic acid[1-dimethylcarbamoyl-2-(7-methyl-1H-indazol-5-yl)-ethyl]amide] |
| 10 to 100 nM | 10 to 100 nM | Cc1nc2cc(C[C@@H](NC(=O)N3CCC(N4Cc5ccccc5NC4=O)CC3)C(=O)N3CCC(N4CCCCC4)CC3)ccc2[nH]1 [Example 46, (R)-4-(2-Oxo-1,4-dihydro-2H-quinazolin-3-yl)-piperidine-1-carboxylic acid[2-[1,4′]bipiperidinyl-1′-yl-1-(2-methyl-1H-benzoimidazol-5-ylmethyl)-2-oxo-ethyl]-amide] |
